Results as given in US20260152487A1 (Sitryx Therapeutics Limited, priority 2021, published 2026).

Biological target: T1, recombinant human PKM2 (Homo sapiens, UniProt P14618)
T1 construct: His (N); purchased R&D Systems
Experiment: Human PKM2 activation assay (Kinase-Glo Plus luminescent detection of generated ATP)
Assay type: biochemical
Conditions: for Emax: percentage activation normalised to DMSO vehicle (LOW) and 5 μM TEPP-46 (HIGH), read-out: hPKM2 Emax; for EC50: recombinant human PKM2 activation, 4-parameter logistic fit, read-out: hPKM2 EC50
Summary of the method: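 Luminescent ATP detection (Kinase-Glo Plus, 15 min, 26 °C) followed a 60 min, 26 °C shaken reaction of compound with […] His-tagged human PKM2, PEP and ADP in imidazole/KCl/MgCl2 buffer with Tween20 and BSA, pH 7.2.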

T1 sequence (P14618 2-531 limits assumed): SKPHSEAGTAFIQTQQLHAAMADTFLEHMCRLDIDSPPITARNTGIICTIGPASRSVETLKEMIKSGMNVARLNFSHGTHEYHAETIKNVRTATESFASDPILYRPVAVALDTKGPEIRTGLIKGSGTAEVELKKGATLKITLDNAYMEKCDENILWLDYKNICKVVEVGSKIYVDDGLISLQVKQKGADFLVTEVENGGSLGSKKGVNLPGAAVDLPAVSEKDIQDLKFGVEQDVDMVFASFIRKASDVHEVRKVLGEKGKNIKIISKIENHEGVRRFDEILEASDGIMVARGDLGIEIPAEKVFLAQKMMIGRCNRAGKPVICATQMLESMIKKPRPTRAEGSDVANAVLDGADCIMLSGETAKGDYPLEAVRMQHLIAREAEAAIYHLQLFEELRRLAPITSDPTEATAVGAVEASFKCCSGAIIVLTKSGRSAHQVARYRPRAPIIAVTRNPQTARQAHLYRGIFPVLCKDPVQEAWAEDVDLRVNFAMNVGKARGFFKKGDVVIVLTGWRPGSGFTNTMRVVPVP

SMILES	Emax [%]	EC50 [nM]
COc1ccc(Cn2ncc3cc(S(=O)(=O)c4cn(C)c(C)n4)ccc3c2=O)cn1 [Example 185, 6-(1,2-dimethyl-1H-imidazol-4-ylsulfonyl)-2-((6-methoxypyridin-3-yl)methyl)phthalazin-1(2H)-one]	66	739
Cc1ccc(Cn2ncc3cc(S(=O)(=O)c4cn[nH]c4)ccc3c2=O)cn1 [Example 295, 6-((1H-pyrazol-4-yl)sulfonyl)-2-((6-methylpyridin-3-yl)methyl)phthalazin-1(2H)-one]	104	456
COc1ccc(Cn2ncc3cc(S(=O)(=O)c4cccc(OC(F)F)c4)ccc3c2=O)cn1 [Example 170, 6-(3-(difluoromethoxy)phenylsulfonyl)-2-((6-methoxypyridin-3-yl)methyl)phthalazin-1(2H)-one]	101	82
Cn1cc(Cl)c(Cn2ncc3cc(S(=O)(=O)c4cn[nH]c4)ccc3c2=O)n1 [Example 308]	95.5	145
NC(=O)c1ccc(Cn2ncc3cc(S(=O)(=O)c4ccccc4)ccc3c2=O)o1 [Example 86, 5-((1-oxo-6-(phenylsulfonyl)phthalazin-2(1H)-yl)methyl)furan −2-carboxamide]	92.2	765
Cc1nc(Cn2ncc3cc(S(=O)(=O)c4cc[nH]n4)ccc3c2=O)ccc1F [Example 303]	118	88.3
NC(=O)c1occc1Cn1ncc2cc(S(=O)(=O)c3ccccc3)ccc2c1=O [Example 85, 3-((1-oxo-6-(phenylsulfonyl)phthalazin-2(1H)-yl)methyl)furan-2-carboxamide]	113	71.5
N#Cc1c[nH]nc1Cn1ncc2cc(S(=O)(=O)c3ccccc3)ccc2c1=O [Example 18, 3-((1-oxo-6-(phenylsulfonyl)phthalazin-2(1H)-yl)methyl)-1H-pyrazole-4-carbonitrile]	98.5	841
Cn1ccc(Cn2ncc3cc([S+]([O-])c4ccccc4)ncc3c2=O)n1 (stereo not shown) [Example 249, 3-((1-methyl-1H-pyrazol-3-yl)methyl)-7-(phenylsulfinyl)pyrido[3,4-d]pyridazin-4(3H)-one]	98.1	530
CC(c1cccnc1)n1ncc2cc(S(=O)(=O)c3ccccc3)ccc2c1=O (stereo not shown) [Example 69, 6-(phenylsulfonyl)-2-(1-(pyridin-3-yl)ethyl)phthalazin-1(2H)-one]	75.5	1170
COc1ccc(Cn2ncc3cc([S@@](=N)(=O)c4ccc(OC(F)F)cc4)ccc3c2=O)cn1 (single isomer, unassigned) [Example 136]	97.2	46.5
Cc1cc(Cn2ncc3cc(S(=O)(=O)c4csc(C)n4)ccc3c2=O)n[nH]1 [Example 358]	98.4	77
Cc1cccc(Cn2ncc3cc(S(=O)(=O)c4csc([C@H](C)O)n4)ccc3c2=O)n1 (single isomer, unassigned) [Example 297]	94.7	103
O=c1c2ccc(S(=O)(=O)c3ccccc3)c(NCCO)c2cnn1Cc1cccnc1O [Example 247, 5-((2-hydroxyethyl)amino)-2-((2-hydroxypyridin-3-yl)methyl)-6-(phenylsulfonyl)phthalazin-1(2H)-one]	103	252
Cn1cc(S(=O)(=O)c2cc3cnn(Cc4cc[nH]n4)c(=O)c3cc2NCCO)cn1 [Example 268, 2-((1H-pyrazol-3-yl)methyl)-7-((2-hydroxyethyl)amino)-6-((1-methyl-1H-pyrazol-4-yl)sulfonyl)phthalazin-1(2H)-one]	102	352
N=[S@@](=O)(c1cn[nH]c1)c1ccc2c(=O)n(Cc3ccc4c(n3)CCO4)ncc2c1 (stereo in doubt) [Example 364]	114	35
COc1ccc(Cn2ncc3cc(S(=O)(=O)c4cnc(OC)cn4)ccc3c2=O)cn1 [Example 177, 6-(5-methoxypyrazin-2-ylsulfonyl)-2-((6-methoxypyridin-3-yl)methyl)phthalazin-1(2H)-one]	79	209
Cn1cc(S(=O)(=O)c2cnc3c(=O)n(Cc4cc[nH]n4)ncc3c2)cn1 [Example 267, 7-((1H-pyrazol-3-yl)methyl)-3-((1-methyl-1H-pyrazol-4-yl)sulfonyl)pyrido[2,3-d]pyridazin-8(7H)-one]	83.5	481

Continued, values first:

Emax [%]	EC50 [nM]	SMILES
101	39.4	Cc1c(Cn2ncc3cc(S(=O)(=O)c4cnn(C)c4)ccc3c2=O)nn2c1OCC2 [Example 355]
93.9	187	Cc1cccc(S(=O)(=O)c2ccc3c(=O)n(Cc4cc[nH]n4)ncc3c2)n1 [Example 288, 2-((1H-pyrazol-3-yl)methyl)-6-((6-methylpyridin-2-yl)sulfonyl)phthalazin-1(2H)-one]
94.6	72.8	O=c1c2ccc(S(=O)(=O)c3cnn(CCO)c3)cc2cnn1Cc1cccc(C2CC2)n1 [Example 307]
66.4	21.3	COc1ccc(S(=O)(=O)c2ccc3c(=O)n(Cc4cc(C(F)(F)F)no4)ncc3c2)cc1 [Example 112, 6-(4-methoxyphenylsulfonyl)-2-((3-(trifluoromethyl)isoxazol-5-yl)methyl)phthalazin-1(2H)-one]
96	103	COc1ccc(Cn2ncc3cc(S(=O)(=O)c4cnn(C)c4)ccc3c2=O)cn1 [Example 168, 2-((6-methoxypyridin-3-yl)methyl)-6-((1-methyl-1H-pyrazol-4-yl)sulfonyl)phthalazin-1(2H)-one]
78.1	466	CCn1nccc1Cn1ncc2cc(S(=O)(=O)c3ccccc3)ccc2c1=O [Example 83, 2-((1-ethyl-1H-pyrazol-5-yl)methyl)-6-(phenylsulfonyl)phthalazin-1(2H)-one]
108	23.8	Cn1ccc(Cn2ncc3cc(S(=O)(=O)c4ccc(OC(F)F)cc4)ccc3c2=O)n1 [Example 212, 6-((4-(difluoromethoxy)phenyl)sulfonyl)-2-((1-methyl-1H-pyrazol-3-yl)methyl)phthalazin-1(2H)-one]
107	36.5	CC1Cc2cc(S(=O)(=O)c3ccc4c(=O)n(Cc5ccn(C)n5)ncc4c3)ccc2O1 (stereo not shown) [Example 213, 2-((1-methyl-1H-pyrazol-3-yl)methyl)-6-((2-methyl-2,3-dihydrobenzofuran-5-yl)sulfonyl)phthalazin-1(2H)-one]
103	113	Cn1ccc(Cn2ncc3cc(S(=O)(=O)c4ccccc4)ncc3c2=O)n1 [Example 248, 3-((1-methyl-1H-pyrazol-3-yl)methyl)-7-(phenylsulfonyl)pyrido[3,4-d]pyridazin-4(3H)-one]
80.2	621	Cn1cc(S(=O)(=O)c2ccc3c(=O)n(Cc4cccnc4O)ncc3c2)cn1 [Example 200, 2-((2-hydroxypyridin-3-yl)methyl)-6-((1-methyl-1H-pyrazol-4-yl)sulfonyl)phthalazin-1(2H)-one]
95.2	19	Nc1cccc(Cn2ncc3cc(S(=O)(=O)c4ccc5c(c4)OCO5)ccc3c2=O)c1 [Example 152, 2-(3-aminobenzyl)-6-(benzo[d][1,3]dioxol-5-ylsulfonyl)phthalazin-1(2H)-one]
